Laboratory results from patent publication EP4616854A1, “TREATMENT OF MUSCLE SARCOPENIA” (Molius Saglik Teknolojileri Anonim Sirketi, priority 2024, dated 2025).
Entries after “also recorded” stand apart in the source; their conditions may differ. Like-named read-outs stand apart in the source and are kept apart here. Where a SMILES comes first, the peptide text is derived from it. The star is where a group is joined. Cbz = O=C(OCc1ccccc1)*

What was measured:
[1] = test system: C2C12 myoblasts; assay: Differentiation of C2C12 myoblasts to myotubes under drug treatment, without ceramide; format: cell-based, mouse; conditions: for ability to facilitate myotube differentiation without the presence of ceramide: C2C12 cells not treated with C2-ceramide, Fig. 15
Protocol: The C2C12 cells (C2C12 mouse C3H muscle myoblast purchased from Sigma) were maintained in modified Eagle's medium (DMEM) with 10 % fetal bovine serum (FBS) and 1 % penicillin/streptomycin (P/S) solution in a humidified incubator with 5 % CO2 at 37 °C. […] […] Then, the medium was changed twice, at two-day intervals, with a differentiation medium (DMEM with 2% FBS and 1% P/S) with drug candidates to differentiate myoblasts into myotubes. […] Cell viability was measured spectrophotometrically by Cell Counting kit-8. The expression level of target proteins (ANXA2, CLMP, Cyc1, and SDHB), myogenic markers (MyoG and MyH3) and α-Tubulin (internal control) were detected using Western blots. All experiments were performed with 3 replicates.

[2] = test system: C2-ceramide treated C2C12 cell line; assay: In vitro sarcopenia model (Example 1): myotube phenotype and MyH3 immunofluorescence; format: cell-based, mouse; conditions: for MyH3 intensity compared to the control group: mean brightness of MyH3 staining, Fig. 5B
Protocol: (§1) The C2C12 cells (C2C12 mouse C3H muscle myoblast purchased from Sigma) were maintained in modified Eagle's medium (DMEM) with 10 % fetal bovine serum (FBS) and 1 % penicillin/streptomycin (P/S) solution in a humidified incubator with 5 % CO2 at 37 °C. 40 µM C2-ceramide was used for developing an in vitro model of sarcopenia in the C2C12 cell line, i.e., in vitro sarcopenia model. One day after 300×10^3 cells were seeded per well in a 6-well plate, N-acetyl-D-sphingosine (C2-ceramide) and the drug candidates (dissolved in DMSO) were administered in the maintenance condition (DMEM with 10 % FBS and 1 % P/S) for two days. Then, the medium was changed twice, at two-day intervals, with a differentiation medium (DMEM with 2% FBS and 1% P/S) with drug candidates to differentiate myoblasts into myotubes. Furthermore, siRNAs for Anxa2 and Clmp and overexpression plasmids for Cyc1 and Sdhb were transfected into the cells to examine the effect of the target proteins on the in vitro sarcopenia model. Cell viability was measured spectrophotometrically by Cell Counting kit-8. The expression level of target proteins (ANXA2, CLMP, Cyc1, and SDHB), myogenic markers (MyoG and MyH3) and α-Tubulin (internal control) were detected using Western blots. All experiments were performed with 3 replicates.
The cells were, once again, washed 3 times in PBS and then permeabilized in 0.1 % TritonX-100 for 15 min at room temperature. The cells were then incubated for 1 h in 2 % bovine serum albumin (BSA) solution followed by overnight incubation in anti-Myosin/MyH3 diluted in 0.1 % BSA at 4 °C. Primary antibody solution was washed away with PBS, then incubated in fluorescent dye-labelled secondary antibody diluted in 0.1 % BSA for 45 min at room temperature protected from light. Finally, the samples were washed 3 times with 1xPBS-T and mounted with DAPI mount putted cover glass on the cells.
The cell brightness was measured by ImageJ software (NIH). For each experiment condition, three different areas were photographed with same area size (5038848 by ImageJ), the mean brightness of each image was obtained for statistical analysis. The t test was used to check the statistical differences between any two experiment conditions.

[3] = test system: C2-ceramide treated C2C12 cell line; assay: In vitro sarcopenia model (Example 1): Western blot of target proteins and myogenic markers; format: cell-based, mouse
Protocol: as §1
The cells were washed with PBS and lysed with CelLytic M (C2978, Sigma-Aldrich) lysis buffer containing protease inhibitors. The cell lysates were centrifuged at 12 000 rpm for 5 min and supernatants were collected. A protein assay solution (Bio-Rad) was used for the determination of protein concentration. The absorbance of the proteins was measured spectrophotometrically at 595 nm by microplate reader (Hidex Sense Beta Plus). Protein electrophoresis was performed using Mini-PROTEAN® TGXTM Precast Gels (Bio-Rad) and the separated proteins were transferred to a Trans-Blot Turbo Mini 0.2 um PVDF Transfer Packs membrane (Bio-Rad) by using Trans-Blot® TurboTM Transfer System (Bio-Rad). The membrane was blocked with 5 % skim milk for 30 min at 4 °C with gentle rocking. It was immunoblotted with primary antibodies against MyH3, MyoG, ANXA2, CLMP, Cyc1, and SDHB, as well as α-Tubulin, as an internal control, overnight at 4 °C with gentle rocking. Goat anti-Rabbit HRP or goat anti-mouse IgG-HRP was used as secondary antibody. Reaction with secondary antibody proceeded for 30 min at 4 °C with gentle rocking.

[4] = in vitro; conditions: mouse, c2c12 cells
Protocol: The effects of the drugs on the C2C12 cell viability were tested by MTT (Thiazolyl Blue Tetrazolium Bromide) assay. 1×10^4 cells were seeded per well in a 96-well plate in 100 µL growth media. After one day of cell seeding, the cells were treated with different concentrations of the drugs dissolved in 0.1 % DMSO and 100 µL of the media for one day. After the treatment period, 5 mg/ml MTT (M2128, Sigma-Aldrich) solution in PBS (10 µL) was added to each well. After one hour, the MTT solution and all media were removed from the wells. 100 µl of DMSO was added and mixed to dissolve the formazan crystals. Cell viability was analysed by measuring the absorbance of the dissolved formazan at a wavelength of 570 nm with a microplate reader (Hidex Sense Beta Plus).

[5] = test system: ubiquitinated proteins; conditions: mice, Sakai et al. [39]; cited from earlier work
[6] = test system: C2-ceramide treated C2C12 cell line; assay: In vitro sarcopenia model (Example 2): Western blot of target genes and myogenic markers; format: cell-based, mouse
Source text: C2-ceramide ([…], Sigma Aldrich) was used for inducing sarcopenia in the C2C12 cell line. […] Then, the medium was changed twice, at two-day intervals, with a differentiation medium (DMEM with 2% FBS and 1% P/S) to differentiate myoblasts into myotubes. Because C2-ceramide may affect mitochondrial activity in muscle cells, another cell model was created without introducing ceramide. After completion of myotube differentiation, cells were harvested for western blot analysis. […] The cell lysates were centrifuged at 12.000 rpm for 10 min and supernatants were collected. Protein Assay Dye Reagent (5000006, Bio-Rad) was used for the determination of protein concentration. The absorbance of the proteins was measured spectrophotometrically at 595 nm by a microplate reader (Hidex Sense Beta Plus). […] The membrane was blocked with 5 % skim milk for 30 min at 4 °C with gentle rocking. After blocking, the membrane was treated with primary antibodies: anti-AGL (ab133720, Abcam, UK) anti-PDHX (HPA038484, Human Protein Atlas, Sweden), anti-Myogenin (ab124800, Abcam), anti-Myosin/MyH3 (ab124205, Abcam), anti-Beta actin (ab8227, Abam) as a loading control overnight at 4 °C on a rocking platform. After the treatment of primary antibodies, the membrane was washed three times with TBS-T buffer ([…]-7500-100, Medicago). Then, Goat anti-Rabbit IgG-HRP (ab205718, Abcam) was treated as the secondary antibody for 30 min at 4 °C with gentle rocking.

[7] = selected non-toxic concentration of drug candidate, Fig. 11
[8] = 40 µM ceramide plus drug candidate at selected concentration
[9] = 20 µM, in vitro sarcopenia model
[10] = drug plus ceramide (sarcopenic cells), concentration not given
[11] = 40 µM ceramide alone versus control, 4 days of differentiation
[12] = 2.5 µM, in vitro sarcopenia model
[13] = 5 µM, in vitro sarcopenia model

With `OCCCNc1cc(-c2ccnc(Nc3cccc(Cl)c3)n2)ccn1` [CGP-60474] the “differentiation of myoblasts to myotubes” value [1, 7] was “highly differentiated” and the “effect on myotubes (phenotypic change)” value [2, 8] was “Only treatment with withaferin-A improved the myotubes”.

In the case of `Cc1ccc([N+](=O)[O-])cc1S(=O)(=O)N(C)/N=C/c1cnc2ccc(Br)cn12` [PIK-75], the “differentiation of myoblasts to myotubes” value [1, 7] is reported as “highly differentiated” and the “effect on myotubes (phenotypic change)” value [2, 8] is reported as “Only treatment with withaferin-A improved the myotubes”.

For `CN(C)CCOC(c1ccc(Cl)cc1)c1ccccn1` (centres unmarked) [carbinoxamine], the CYC1 expression [3, 9] was “large improvement”, the MyH3 expression [3, 9] was “increase” and the MyoG expression [3, 9] was “increase”. The “expression level of CYC1” value [3, 10] was “increase”, the “expression level of MyH3” value [3, 10] was “increase” and the “expression level of MyoG” value [3, 10] was “increase”. The “effect on myotubes (phenotypic change)” value [2, 8] was “promising effect in enhancing myotube cells”.

For `CCCCCCCCCCCCC/C=C/[C@@H](O)[C@H](CO)NC(C)=O` [ceramide, N-acetyl-D-sphingosine], the “expression level of MyH3” value [3, 11] was “decreased”, the “expression level of MyoG” value [3, 11] was “decreased” and the “expression level of ANXA2” value ([3]; ceramide alone versus control) was “increased”. For the same compound, the myotube formation ([2]; 40 µM ceramide alone, after 4 days of differentiation) was “less myotubes were formed” and the “MyH3 intensity compared to the control group” value [2] was “significantly deceased; also recorded: significantly decreased”.

In the case of `Cc1ccc(CNc2ncnc3ccc(-c4ccc(CO)o4)cc23)o1` [ML-167], the “ability to facilitate myotube differentiation without the presence of ceramide” value [1] is reported as “exhibited the ability to facilitate myotube differentiation”, the “ability to improve the myotube fusion in healthy muscle myoblasts” value [1] is reported as “ability to improve the myotube fusion” and the Cyc1 expression [3, 12] is reported as “notable upregulation”. The MyH3 expression [3, 12] was “notable upregulation”, the MyoG expression [3, 12] was “notable upregulation” and the Cyc1 expression [3, 13] was “notable upregulation”. The MyH3 expression [3, 13] was “notable upregulation”, the MyoG expression [3, 13] was “notable upregulation” and the “expression level of CYC1” value [3, 10] was “significantly increase”. For the same compound, the “expression level of MyH3” value [3, 10] was “significantly increase”, the “expression level of MyoG” value [3, 10] was “significantly increase” and the “effect on myotubes (phenotypic change)” value [2, 8] was “promising effect in enhancing myotube cells”.

With `CCCCCCCCCC(=O)NC(CN1CCOCC1)C(O)c1ccccc1` (racemic) [DL-PDMP] the “differentiation of myoblasts to myotubes” value [1, 7] was “highly differentiated” and the “effect on myotubes (phenotypic change)” value [2, 8] was “Only treatment with withaferin-A improved the myotubes”.

With `CC1=C(CO)C(=O)OC(C(C)C2CCC3C4CC5OC56C(O)C=CC(=O)C6(C)C4CCC23C)C1` (centres unmarked) [Withaferin-A, withaferin-A] the MNTC at 24 h [4] was 50 nM, the “differentiation of myoblasts to myotubes” value [1, 7] was “highly differentiated” and the “expression level of CYC1” value [3, 10] was “activating effect”. The “expression level of MyH3” value [3, 10] was “increase; also recorded: expressed as much as control samples”, the “expression level of MyoG” value [3, 10] was “increase” and the “expression level of ANXA2” value ([3]; drug plus ceramide, concentration not given) was “inhibitory effect; also recorded: decreased”. For the same compound, the “effect on myotubes (phenotypic change)” value [2, 8] was “improved the myotubes similarly to the control sample” and the “MyH3 intensity compared to the control group” value [2] was “no statistical difference”.

For `Nc1[nH]nc2nnc(-c3c(-c4ccccc4)nn4ccccc34)cc12` [FR-180204], the “ability to facilitate myotube differentiation without the presence of ceramide” value [1] was “exhibited the ability to facilitate myotube differentiation”, the “ability to improve the myotube fusion in healthy muscle myoblasts” value [1] was “ability to improve the myotube fusion” and the Cyc1 expression [3, 13] was “significantly increased”. The MyH3 expression [3, 13] was “significantly increased”, the MyoG expression [3, 13] was “significantly increased” and the “expression level of CYC1” value [3, 10] was “significantly increase”. The “expression level of MyH3” value [3, 10] was “significantly increase”, the “expression level of MyoG” value [3, 10] was “significantly increase” and the “effect on myotubes (phenotypic change)” value [2, 8] was “promising effect in enhancing myotube cells”.

With `CC(=O)c1c(C)c2cnc(Nc3ccc(N4CCNCC4)cn3)nc2n(C2CCCC2)c1=O` [palbociclib] the MNTC at 24 h [4] was 5000 nM.

In the case of `CC(C)C[C@@H](C=O)NC(=O)[C@H](CC(C)C)NC(=O)[C@H](CC(C)C)NC(=O)OCc1ccccc1` [MG-132] (Cbz-Leu-Leu-Leu-aldehyde), the “expression levels of ubiquitinated proteins in atrophic muscle cells” value [5] is given as “downregulation”, the MNTC at 24 h [4] is given as 25 nM and the “expression levels of MyH3” value ([6]; sarcopenic cells) is given as “significantly increase”. The “expression levels of MyoG” value ([6]; sarcopenic cells) was “significantly increase”, the “expression of myogenic markers” value ([6]; sarcopenic cells, compared to the in vitro sarcopenia model) was “increased” and the “expression of AGL” value ([6]; selected non-toxic optimal dose, in vitro sarcopenia model) was “enhanced; also recorded: significantly increase”.

In the case of `O=C1c2c(O)ccc(O)c2C(=O)c2c(NCCNCCO)ccc(NCCNCCO)c21` [Mitoxantrone], the “differentiation of myoblasts to myotubes” value [1, 7] is reported as “less differentiated”.

For `COC[C@H]1OC(=O)c2coc3c2[C@@]1(C)C1=C(C3=O)[C@@H]2CCC(=O)[C@@]2(C)C[C@H]1OC(C)=O` [Wortmannin], the “differentiation of myoblasts to myotubes” value [1] was “moderately differentiated” and the “effect on myotubes (phenotypic change)” value [2] was “Only treatment with withaferin-A improved the myotubes”.

`Cc1c(C)c2c(c(C)c1O)CCC(C)(COc1ccc(CC3SC(=O)NC3=O)cc1)O2` (centres unmarked) [troglitazone] showed an MNTC at 24 h [4] of 500 nM.

Work on `CC(C)(Oc1ccc(Cl)cc1)C(=O)O` [clofibric-acid, clofibric acid] yielded an MNTC at 24 h [4] of 5000 nM.
